Results: US20100285038A1, “Factor Involved in Metastasis and Uses Thereof” (priority 2002, published 2010)
d = 2'-deoxy (DNA); m = 2'-O-methyl

Key:
PRF1 protein = test: Western blot analysis of PRF1 protein expression in PC-3 cells; assay type: cell-based, human; conditions: for expressed PRF1 protein: lysates of PC-3 cells treated with PRF1 specific GeneBlocs or mismatches, polyclonal antibody (FIG. 8A); for expression of PRF1 protein: PC-3 cells under hypoxic conditions, 72 h GeneBloc treatment, CoCl2 treatment for 24 h (FIG. 10B)
Protocol: A polyclonal antibody was generated against PRF1 using standard techniques. The polyclonal antibody thus obtained was tested for its specificity for PRF1. For that purpose, cell lysates from PC-3 cells treated with PRF1 specific antisense molecules, more particularly gene blocks, or mismatches thereof and cells transfected with expression plasmides for recombinant HA-tagged PRF1 were prepared. The lysates were analysed by Western blot analysis using the polyclonal antibody and the results are depicted in FIG. 8 A.
To investigate whether PI 3-kinase activity has an impact on PRF1 protein expression, PC-3 cells were treated either with LY294002 or with DMSO as control. Analysis was performed by Western Blot analysis using the polyclonal antibody as detection means for PRF1 protein. Apart from PRF1 protein, also expression of Akt and phosphorylated Akt (P*Akt) was monitored using respective specific antibodies. Additionally, the expression of p110α and p85 was monitored.
(§1) To investigate whether the expression of PRF1 at the protein level would also be dependent on Akt (PKB) activity and HIF1α activity PC-3 cells were treated with Akt specific antisense molecules. More particularly, two antisense molecules, designated Akt1-GB and Akt2-molecule were used with the readout being the same as discussed in connection with FIG. 9, whereby, additionally, the HIF1α protein expression was monitored using a commercially available protein G-purified polyclonal antibody (R&DSystems, Lot Number: IUGO13071).
(§2) The same experiment using the same markers for monitoring except Akt and P*-Akt was carried out with cells grown under hypoxic conditions which was realized by treating the cells with CoCl2. Two different forms of antisense molecules, namely HIF1α-GB66 and HIF1α-GB67 were used and respective mismatches used as controls.
(§3) A lane of the Blot represents the cell lysate of the cells shown in the corresponding photograph. As a read-out, p110 alpha and p85 are shown as loading control and the component of the PI-3K pathway investigated, i.e. AKT, monitored as P*AKT, HIF1 alpha and PRF1.

PC-3 cells [1] = test: In vitro growth on Matrigel matrix; assay type: cell-based, human; conditions: PC-3 cells transfected with GeneBloc; versus corresponding mismatched oligonucleotides
Protocol: PC3 cells were treated with 10 μM LY294002 or DMSO when seeded on Matrigel. If cells were transfected previous to seeding cells were transfected with GeneBloc and trypsinized 48 h post transfection. The cells were washed in medium and seeded into duplicate 24-wells (100.000 cells per well) pre-coated with 250 μl matrigel basement membrane matrix (Becton Dickinson). After incubation for 24 to 72 h photographs were taken at 5× magnification with an Axiocam camera attached to an Axiovert 5100 microscope (Zeiss).
A more confluent growth of the cells is taken as an indication that their metastasis and migration behavior is increased which allows the cells to spread over the three-dimensional structure provided by the matrigel. The result of this example is depicted in FIG. 5.
PC3 cells were transfected and seeded on matrigel as described and growth was monitored. mRNA was isolated from an aliquot of the cells seeded on matrigel and analysed using Taqman assay (left panel). PRF1 (NM_019058) specific mRNA was standardized to internal p110α mRNA levels. A PTEN specific GeneBloc is used as a negative control in the PTEN^−/− PC-3 cells and a p110β specific GeneBloc is used as a positive control for growth in extracellular matrix. […]

[2] = system: PRF1 (NM—019058) specific mRNA; test: PRF1 mRNA knock-down by real time RT-PCR (Taqman) in transfected PC-3 cells; assay type: cell-based, human; conditions: PC-3 cells seeded on matrigel; standardized to internal p110α mRNA levels; DCt method
Protocol: Transfections were carried out in 96 well or 10-cm plates (at 30% to 50% confluency) by using various cationic lipids such as Oligofectamine, Lipofectamine (Life Technologies), NC388 (Ribozyme Pharmaceuticals, Inc., Boulder, Colo.), or FuGene 6 (Roche) according to the manufacturer's instructions. GeneBlocs were transfected by adding pre-formed 5× concentrated complex of GeneBloc and lipid in serum-free medium to cells in complete medium. The total transfection volume was 100 μl for cells plated in 96 wells and 10 ml for cells in 10 cm plates. The final lipid concentration was 0.8 to 1.2 μg/ml depending on cell density; the GeneBloc concentration is indicated in each experiment.
The RNA of cells transfected in 96-wells was isolated and purified using the Invisorb RNA HTS 96 kit (InVitek GmbH, Berlin). Inhibition of PRF1 mRNA expression was detected by real time RT-PCR (Taqman) analysis using 300 nM PRF1 5′ primer, 300 nM PRF1 3′ primer and 100 nM of the PRF1 Taqman probe Fam-Tamra labelled. […]
PC3 cells were transfected and seeded on matrigel as described and growth was monitored. mRNA was isolated from an aliquot of the cells seeded on matrigel and analysed using Taqman assay (left panel). […]

[3] = system: PI 3-kinase (p110α and p85); test: Western blot analysis of PI 3-kinase (p110α and p85) expression in PC-3 cells; assay type: cell-based, human; conditions: lysates of PC-3 cells treated with PRF1 specific GeneBloc (FIG. 8A)
HIF1α = test: Western blot analysis of HIF1α protein expression in PC-3 cells; assay type: cell-based, human; conditions: PC-3 cells under hypoxic conditions; 72 h GeneBloc treatment, CoCl2 treatment for 24 h (FIG. 10B)
Protocol: as §1, §2, §3

PC-3 cells [4] = test: Prostatic tumor growth and lymph node metastasis of PC-3 cells stably transfected with siRNA expression plasmids; assay type: in vivo, Shoe:NMRI-nu/nu mice; conditions: 56 days post inoculation, stably transfected PC-3 cells
Protocol: Male Shoe:NMRI-nu/nu mice (Tierzucht Schönwalde GmbH) maintained under SPF conditions (Laminar air flow equipment, Scantainer, Scanbur) served as recipients for the human prostate carcinoma cells. The animals, aged 6-8 weeks and weighing 28-30 g, were inoculated 2×10^6/0.03 ml tumor cells into both, the left dorsolateral lobe of the prostatic gland (iprost; Orthotopic) or the tip of the Lobus lateralis sinister of the liver (ihep; Ectopic). For this purpose, the mice received a total body anaesthesia using a mixture of Ketanest (Parke-Davis GmbH) and Rompun (Bayer Vital GmbH) 80:1 with dosages of 100 mg/kg and 5 mg/kg, respectively. […]
All sacrificed animals were completely dissected and photographically documented. Tumors (Prostatic gland) and metastases (Caudal, lumbar, renal lymph node metastases) were measured in two dimensions by means of a pair of callipers. The volume was calculated according to V (mm^3)=ab^2/2 with b<a. […]
The various siRNA constructs such as the ones directed to p 110 alpha, p110 beta and PTEN as well as the PRF1 specific siRNA were cloned in the same vector construct. […] Resistent pools of cells were expanded and harvested, cell number determined and prepared for animal experiment as described. […]

## Akt2 GeneBloc: Akt specific antisense molecule (GeneBloc), SEQ ID NO: 38 (antisense UCCUUGTACCCAATGAAGGAG; sugars from the 5' end m6 d9 m6, backbone and methylation of C not given here; DNA gap phosphorothioate-linked, flank linkages not clearly stated, further chemistry not fully specified)
PRF1 protein; PC-3 cells, 72 h after treatment with Akt specific antisense molecules (FIG. 10A)
  PRF1 protein level: reduction

## GeneBloc 70043: third generation antisense oligonucleotide directed to PRF1 mRNA, SEQ ID NO. 7 (antisense CCCAAAAGTTCAGTCGUCUCU; sugars from the 5' end m6 d9 m6, backbone and methylation of C not given here; DNA gap phosphorothioate-linked, flank linkages not clearly stated, further chemistry not fully specified)
PRF1 protein
  expressed PRF1 protein: clear reduction
PC-3 cells [1]
  growth on matrigel: Specific growth inhibition
[2]
  knockdown of the mRNA of PRF1: significant knockdown
[3]
  PI 3-kinase expression (p110α and p85 specific antibodies): still being extensively expressed

## GeneBloc 70044: third generation antisense oligonucleotide directed to PRF1 mRNA, SEQ ID NO. 8 (antisense GCUCCUGCCTCTAGTCUCCAC; sugars from the 5' end m6 d9 m6, backbone and methylation of C not given here; DNA gap phosphorothioate-linked, flank linkages not clearly stated, further chemistry not fully specified)
PRF1 protein
  expressed PRF1 protein: significant decrease
PC-3 cells [1]
  growth on matrigel: Specific growth inhibition
[2]
  knockdown of the mRNA of PRF1: significant knockdown

## GeneBloc 70168: mismatched oligonucleotide (4 mismatches) corresponding to 70043, alias FLJ: 954L21, SEQ ID NO. 12 (CCGAAAAGAACAGTGCUCUCU; sugars from the 5' end m6 d9 m6, backbone and methylation of C not given here; DNA gap phosphorothioate-linked, flank linkages not clearly stated, further chemistry not fully specified)
PRF1 protein
  expressed PRF1 protein: significantly expressed

## HIF1α-GB66: GeneBloc antisense molecule specific for HIF1α, SEQ ID NO: 32 (antisense GGUAGUGGTGGCATTAGCAGU; sugars from the 5' end m6 d9 m6, backbone and methylation of C not given here; DNA gap phosphorothioate-linked, flank linkages not clearly stated, further chemistry not fully specified)
PRF1 protein
  expression of PRF1 protein: reduced
HIF1α
  expression of HIF1α at the protein level: significantly reduced

## HIF1α-GB67: GeneBloc antisense molecule specific for HIF1α, SEQ ID NO: 34 (antisense UGACUCCTTTTCCTGCUCUGU; sugars from the 5' end m6 d9 m6, backbone and methylation of C not given here; DNA gap phosphorothioate-linked, flank linkages not clearly stated, further chemistry not fully specified)
PRF1 protein
  expression of PRF1 protein: reduced
HIF1α
  expression of HIF1α at the protein level: significantly reduced

B1: PRF1 specific siRNA: siRNA generated by U6+2 promoter driven expression from plasmid, directed to the mRNA of PRF1; expression cassette SEQ ID NO. 17 (nucleic acid)
DNA: GAATTCCTATTTCCCATGATTCCTTCATATTTGCATATTTTTAAAATGGACTATCATATGCTTACCGTAACTTGAAAGTATTTCGATTTCTTGGCTTTATATATCTTGGGAAAGGACGAAACACCGGGAGACTAGAGGCAGGAGCAAAAAAAAAAACTCCTGCCTCTAGTCTCCACTTTTTCTCGAG
notes: siRNA generated by U6+2 promoter driven expression from plasmid, directed to the mRNA of PRF1; 17
PC-3 cells [4]; EGFP expression plasmid as control (FIG. 6C)
  prostatic tumor growth (volume of primary prostate tumors): significantly inhibited
PC-3 cells [4]; EGFP expression plasmid as control (FIG. 6D)
  total lymph node metastasis (volume): less prominent
